Reference: PMC10298626 (International Journal of Molecular Sciences, 2023)

Experiments:
TNF-α = TNF-α production (ELISA) in LPS-stimulated RAW264.7 cells; type: cell-based, Mouse; details: 20, 40, and 80 μM; 2 h pretreatment, LPS 500 ng/mL 20 h; concentration-dependent
Procedure: Macrophages stimulated by pathogens and cytokines are activated and play an important role in regulating the immune response, inflammatory response, and metabolism. LPS-activated RAW264.7 cells were treated with 20, 40, or 80 μM of coumarin derivative 2 and cultured for 24 h, and the levels of TNF-α and IL-6 in the culture medium were analyzed.
RAW264.7 cells were seeded into 96-well plates and cultured for 24 h. After 2 h of treatment with 20, 40, or 80 μM of coumarin compound derivative 2, the cells were incubated with LPS (500 ng/mL) for 20 h. ELISA kits (R & D Systems, Minneapolis, MN, USA) were used to collect and analyze the cell supernatants for TNF-α and IL-6.
Figure 3 Effects of coumarin derivative 2 on IL-6 and TNF-α production and mRNA expression in LPS-stimulated RAW264.7 cells. (a) Effect of coumarin derivative 2 on TNF-α and IL-6 production in RAW264.7 cells. The RAW264.7 cells (1 × 10^5/well, 96-well plates) were pretreated with coumarin derivative 2 (20, 40, and 80 μM) for 2 h and incubated with LPS (500 ng/mL) for 20 h. An ELISA kit was used to analyze cell supernatants for TNF-α and IL-6. (b) Effect of coumarin derivative 2 on mRNA expression of IL-6 and TNF-α in RAW264.7 cells. […] IL-6 and TNF-α mRNA expression levels were measured via a real-time quantitative reverse transcription polymerase chain reaction.

p38 = experiment: LPS-induced phosphorylation of p38 (immunoblotting) in RAW264.7 cells; type: cell-based, Mouse; details: 20, 40, and 80 μM pretreatment 2 h; LPS 500 ng/mL 30 min
Procedure: RAW264.7 cells were seeded into 6-well plates (2 × 10^6 cells/well) and incubated for 24 h. The cells were incubated with 20, 40, and 80 μM of coumarin derivative 2 for 2 h, and then LPS (500 ng/mL) was added for 30 min (for phosphorylation of ERK, JNK, p38, and p65) and 24 h (for protein expression of iNOS).
The cells were washed with PBS and lysed with radioimmunoprecipitation assay buffer containing 1 mM dithiothreitol (Wako, Tokyo, Japan), phosphatase inhibitor cocktail, 1 mM phenylmethylsulfonylfluoride, 1 mM sodium orthovanadate (Sigma), and 10 mM β-glycerophosphate (Sigma). The extracted proteins were centrifuged at 13,000× g rpm, separated via sodium dodecyl sulfate polyacrylamide gel electrophoresis, and transferred to polyvinylidene fluoride membranes. Nonspecific proteins were blocked by adding 5% skim milk. After blocking, primary antibodies were incubated overnight at 4 °C. After washing with the PBS-T buffer, the secondary antibodies were treated at room temperature for 2 h. For detection, the antibodies were developed with Super Signal® West Femto Substrate (ThermoFisher, Waltham, MN, USA) and analyzed on a Fusion Solo Chemiluminescence System (Vilber Lourmat, Paris, France) ECL detection system.
Figure 5 Inhibitory effects of coumarin derivative 2 on LPS-induced phosphorylation of MAPKs and NF-κB p65 in RAW264.7 cells. […]

N#CC1=C(N)Oc2c(c(=O)oc3ccccc23)C1c1cccc(F)c1 (centres unmarked) [Coumarin derivative 2]
LPS-induced TNF-α level (TNF-α): significantly reduced
Phosphorylation of p38 (p38): inhibited
